Assay type in all cases: cell-based
Holding throughout (details): fluorescent calcium assay

For one experiment, the target named is TRPML1 (Homo sapiens, UniProt Q9GZU1). The experiment is described as follows: Fluorescent TRPML1 assay (Fluo4-AM calcium fluorescence in doxycycline-induced HEK-293 Trex cells). The procedure, abridged:
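First, expression of surface-targeted mutant human TRPML1 is induced in HEK-293 Trex cells with 0.5 ug/mL doxycycline the day before. Next, cells take up 1 micromolar Fluo4-AM in Ringer's with 0.1% Pluronic. Finally, they are added to compounds (6 nanomolar–20 micromolar final) in 10 mM calcium Ringer's and fluorescence is read.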

The target in another experiment is T1, TRPML2 (Homo sapiens, UniProt Q8IZK6).
T1 construct: expressed in transfected cells
T1 sequence (Q8IZK6 1-566): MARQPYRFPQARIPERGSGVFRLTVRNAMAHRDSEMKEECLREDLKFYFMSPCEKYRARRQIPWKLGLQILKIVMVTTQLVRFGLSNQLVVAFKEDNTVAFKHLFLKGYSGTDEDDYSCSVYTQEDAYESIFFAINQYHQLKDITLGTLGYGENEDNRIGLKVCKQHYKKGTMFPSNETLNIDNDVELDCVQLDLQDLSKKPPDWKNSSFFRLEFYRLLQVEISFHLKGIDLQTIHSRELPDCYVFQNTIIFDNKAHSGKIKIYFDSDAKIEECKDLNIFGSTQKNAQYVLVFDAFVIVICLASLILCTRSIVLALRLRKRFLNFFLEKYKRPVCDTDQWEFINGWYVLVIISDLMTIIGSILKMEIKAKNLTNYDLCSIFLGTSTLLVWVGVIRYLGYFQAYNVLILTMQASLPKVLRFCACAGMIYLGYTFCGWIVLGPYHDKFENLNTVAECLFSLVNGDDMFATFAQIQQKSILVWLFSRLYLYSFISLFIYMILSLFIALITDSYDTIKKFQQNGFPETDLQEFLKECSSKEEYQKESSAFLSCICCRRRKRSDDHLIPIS
The experiment is described as follows: Fluorescent TRPML2 assay (performed as for TRPML1, substituting the TRPML2 subtype). The procedure, abridged: (§1)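 Compound series (final 6 nM-20 μM, half-log, triplicate) were added to Fluo4-AM-loaded HEK-293 Trex cells in 10 mM calcium Ringer's, expressing the human TRPML subtype after doxycycline 0.5 ug/mL induction. Percent activity versus positive/negative controls from 480/540 nm fluorescence; EC50 by non-linear regression.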

A further experiment concerns the target T2, TRPML3 (Homo sapiens, UniProt Q8TDD5).
T2 construct: expressed in transfected cells
T2 sequence (Q8TDD5 1-553): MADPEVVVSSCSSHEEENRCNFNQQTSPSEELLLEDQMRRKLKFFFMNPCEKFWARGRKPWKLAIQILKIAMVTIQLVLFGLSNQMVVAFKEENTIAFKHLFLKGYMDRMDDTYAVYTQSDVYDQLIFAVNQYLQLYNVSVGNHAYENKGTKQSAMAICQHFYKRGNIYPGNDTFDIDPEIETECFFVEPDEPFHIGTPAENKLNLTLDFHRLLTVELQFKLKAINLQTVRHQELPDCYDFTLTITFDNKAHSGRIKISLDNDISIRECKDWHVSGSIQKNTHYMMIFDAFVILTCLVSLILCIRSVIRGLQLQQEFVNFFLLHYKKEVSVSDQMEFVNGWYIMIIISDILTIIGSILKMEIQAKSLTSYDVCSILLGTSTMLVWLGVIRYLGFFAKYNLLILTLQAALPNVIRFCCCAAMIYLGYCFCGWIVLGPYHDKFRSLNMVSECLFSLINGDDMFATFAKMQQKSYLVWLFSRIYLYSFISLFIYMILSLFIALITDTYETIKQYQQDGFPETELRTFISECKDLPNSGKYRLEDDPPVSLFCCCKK
The experiment is described as follows: Fluorescent TRPML3 assay (performed as for TRPML1, substituting the TRPML3 subtype). The procedure, abridged:
as §1

Where only a bound is given, the exact number is not on record here.

Chain of TRPML1 (Q9GZU1 whole entry L15A/L16A/L577A/L578A, form open): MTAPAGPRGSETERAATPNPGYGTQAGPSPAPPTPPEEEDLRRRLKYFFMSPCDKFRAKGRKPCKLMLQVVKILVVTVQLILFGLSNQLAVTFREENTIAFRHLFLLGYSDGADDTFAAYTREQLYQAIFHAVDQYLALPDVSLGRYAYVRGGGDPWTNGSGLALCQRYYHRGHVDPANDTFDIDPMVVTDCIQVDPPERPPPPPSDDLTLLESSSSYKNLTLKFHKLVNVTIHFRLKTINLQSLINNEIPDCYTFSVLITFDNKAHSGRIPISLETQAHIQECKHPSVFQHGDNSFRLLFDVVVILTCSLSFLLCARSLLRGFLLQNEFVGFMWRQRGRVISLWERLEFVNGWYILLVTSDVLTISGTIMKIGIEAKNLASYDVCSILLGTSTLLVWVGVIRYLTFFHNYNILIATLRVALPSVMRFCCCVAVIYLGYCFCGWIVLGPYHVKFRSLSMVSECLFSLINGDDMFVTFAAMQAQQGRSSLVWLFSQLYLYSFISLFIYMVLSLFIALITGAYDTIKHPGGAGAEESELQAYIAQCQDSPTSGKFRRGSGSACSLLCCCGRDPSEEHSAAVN

Broadly, the EC50 is the concentration at which the effect is half-maximal. Regarding `CC1CN(C(=O)OC(C)(C)C)CCN1c1ncnc2c1c(C1CCOCC1)cn2-c1cccc(Cl)c1` (stereo not drawn) [Compound 466, tert-butyl 4-(7-(3-chlorophenyl)-5-(tetrahydro-2H-pyran-4-yl)-7H-pyrrolo[2,3-d]pyrimidin-4-yl)-3-methylpiperazine-1-carboxylate], the EC50 at TRPML1 was < 100 nM; on TRPML2 it was 500 to 2000 nM; on TRPML3, < 100 nM.

Turning to `C[C@H]1CN(C(=O)OC(C)(C)C)CCN1c1ncnc2c1c(C1CCOCC1)cn2-c1cc(F)cc(F)c1` [Compound 468, tert-butyl (S)-4-(7-(3,5-difluorophenyl)-5-(tetrahydro-2H-pyran-4-yl)-7H-pyrrolo[2,3-d]pyrimidin-4-yl)-3-methylpiperazine-1-carboxylate], the EC50 on TRPML1 was 100 to 500 nM; on TRPML2, > 2000 nM; on TRPML3 it was 100 to 500 nM.

As for `C[C@@H]1CN(C(=O)OC(C)(C)C)CCN1c1ncnc2c1c(C1CCOCC1)cn2-c1cccc(F)c1` [Compound 469, tert-butyl (R)-4-(7-(3-fluorophenyl)-5-(tetrahydro-2H-pyran-4-yl)-7H-pyrrolo[2,3-d]pyrimidin-4-yl)-3-methylpiperazine-1-carboxylate], the EC50 on TRPML1 was in the range of 100 to 500 nM; at TRPML2, 500 to 2000 nM; on TRPML3, 100 to 500 nM.

With `C[C@@H]1CN(C(=O)OC(C)(C)C)CCN1c1ncnc2c1c(C1=CCOCC1)cn2-c1cccc(F)c1` [Compound 471, tert-butyl (R)-4-(5-(3,6-dihydro-2H-pyran-4-yl)-7-(3-fluorophenyl)-7H-pyrrolo[2,3-d]pyrimidin-4-yl)-3-methylpiperazine-1-carboxylate], the EC50 on TRPML1 was 500 to 2000 nM; on TRPML2, 500 to 2000 nM; on TRPML3 it was 100 to 500 nM.

`C[C@H]1CN(C(=O)OC(C)(C)C)CCN1c1ncnc2c1c(C1=CCOCC1)cn2-c1cccc(F)c1` [Compound 472, tert-butyl (S)-4-(5-(3,6-dihydro-2H-pyran-4-yl)-7-(3-fluorophenyl)-7H-pyrrolo[2,3-d]pyrimidin-4-yl)-3-methylpiperazine-1-carboxylate]: the EC50 at TRPML1 is 100 to 500 nM; on TRPML2 it was 500 to 2000 nM; on TRPML3, 100 to 500 nM.

Turning to `C[C@H]1CN(C(=O)OC(C)(C)C)CCN1c1ncnc2c1c(C1=CCOCC1)cn2-c1cc(F)cc(F)c1` [Compound 473, tert-butyl (S)-4-(7-(3,5-difluorophenyl)-5-(3,6-dihydro-2H-pyran-4-yl)-7H-pyrrolo[2,3-d]pyrimidin-4-yl)-3-methylpiperazine-1-carboxylate], the figures for the concentration for a half-maximal effect (EC50) on TRPML1, at TRPML2 and on TRPML3 were 100 to 500 nM, 500 to 2000 nM and 100 to 500 nM, respectively.

Consider `C[C@H]1CN(C(=O)OC(C)(C)C)CCN1c1ncnc2c1c(C1COC1)cn2-c1cccc(F)c1` [Compound 474, tert-butyl (S)-4-(7-(3-fluorophenyl)-5-(oxetan-3-yl)-7H-pyrrolo[2,3-d]pyrimidin-4-yl)-3-methylpiperazine-1-carboxylate], for which the half-maximal effective concentration (EC50) on TRPML1, on TRPML2 and at TRPML3 was > 2000 nM in each case.

For `C[C@H]1CN(C(=O)OC(C)(C)C)CCN1c1ncnc2c1c(C1COC1)cn2-c1cc(F)cc(F)c1` [Compound 475, tert-butyl (S)-4-(7-(3,5-difluorophenyl)-5-(oxetan-3-yl)-7H-pyrrolo[2,3-d]pyrimidin-4-yl)-3-methylpiperazine-1-carboxylate], the EC50 was 500 to 2000 nM on TRPML1, > 2000 nM on TRPML2 and 100 to 500 nM at TRPML3.

For the compound `Cc1cn(-c2cc(C#N)ccn2)c2ncnc(N3CCN(C(=O)OC(C)(C)C)C[C@@H]3C)c12` [Compound 476, tert-butyl (S)-4-(7-(4-cyanopyridin-2-yl)-5-methyl-7H-pyrrolo [2,3-d]pyrimidin-4-yl)-3-methylpiperazine-1-carboxylate], the EC50 at TRPML1, on TRPML2 and at TRPML3 was < 100 nM throughout.

`Cc1cn(-c2cc(C#N)ccn2)c2ncnc(N3C[C@@H](C)N(C(=O)OC(C)(C)C)C[C@@H]3C)c12` [Compound 477, tert-butyl (2R,5S)-4-(7-(4-cyanopyridin-2-yl)-5-methyl-7H-pyrrolo[2,3-d]pyrimidin-4-yl)-2,5-dimethylpiperazine-1-carboxylate]: the concentration for a half-maximal effect (EC50) at TRPML1, on TRPML2 and on TRPML3 was < 100 nM each time.

For the compound `CCc1cn(-c2cc(C#N)ccn2)c2ncnc(N3CCN(C(=O)OC(C)(C)C)C[C@@H]3C)c12` [Compound 478, tert-butyl (S)-4-(7-(4-cyanopyridin-2-yl)-5-ethyl-7H-pyrrolo[2,3-d]pyrimidin-4-yl)-3-methylpiperazine-1-carboxylate], the EC50 at TRPML1, on TRPML2 and on TRPML3 was < 100 nM throughout.

Consider `CCc1cn(-c2cc(C#N)ccn2)c2ncnc(N3C[C@@H](C)N(C(=O)OC(C)(C)C)C[C@@H]3C)c12` [Compound 479, tert-butyl (2R,5S)-4-(7-(4-cyanopyridin-2-yl)-5-ethyl-7H-pyrrolo[2,3-d]pyrimidin-4-yl)-2,5-dimethylpiperazine-1-carboxylate], for which the EC50 at TRPML1, on TRPML2 and at TRPML3 was < 100 nM each time.

Take `Cc1cn(-c2cc(F)ccn2)c2ncnc(N3C[C@@H](C)N(C(=O)OC(C)(C)C)C[C@@H]3C)c12` [Compound 480, tert-butyl (2R,5S)-4-(7-(4-fluoropyridin-2-yl)-5-methyl-7H-pyrrolo[2,3-d]pyrimidin-4-yl)-2,5-dimethylpiperazine-1-carboxylate]: the EC50 was < 100 nM at TRPML1, 500 to 2000 nM on TRPML2 and < 100 nM on TRPML3.

Regarding `C[C@H]1CN(C(=O)OC(C)(C)C)CCN1c1ncnc2c1c(C(F)(F)F)cn2-c1cc(C#N)ccn1` [Compound 481, tert-butyl (S)-4-(7-(4-cyanopyridin-2-yl)-5-(trifluoromethyl)-7H-pyrrolo[2,3-d]pyrimidin-4-yl)-3-methylpiperazine-1-carboxylate], the EC50 at TRPML1, on TRPML2 and at TRPML3 was < 100 nM in each case.

Turning to `CC(C)(C)OC(=O)N1CCCN(c2ncnc3c2c(C2CC2)cn3-c2cc(C#N)ccn2)CCC1` [Compound 482, tert-butyl 5-(7-(4-cyanopyridin-2-yl)-5-cyclopropyl-7H-pyrrolo[2,3-d]pyrimidin-4-yl)-1,5-diazocane-1-carboxylate], the concentration giving a half-maximal response (EC50) at TRPML1 was < 100 nM; on TRPML2, 100 to 500 nM; on TRPML3, < 100 nM.

Regarding `C[C@@H]1CN(c2ncnc3c2c(C(F)(F)F)cn3-c2cc(C#N)ccn2)[C@@H](C)CN1C(=O)OC(C)(C)C` [Compound 483, tert-butyl (2R,5S)-4-(7-(4-cyanopyridin-2-yl)-5-(trifluoromethyl)-7H-pyrrolo[2,3-d]pyrimidin-4-yl)-2,5-dimethylpiperazine-1-carboxylate], the 50% effective concentration (EC50) at TRPML1, at TRPML2 and at TRPML3 was < 100 nM each time.

For the compound `C[C@H]1CN(C(=O)OC(C)(C)C)CCN1c1ncnc2c1c(C(C)(C)O)cn2-c1cc(C#N)ccn1` [Compound 484, tert-butyl (S)-4-(7-(4-cyanopyridin-2-yl)-5-(2-hydroxypropan-2-yl)-7H-pyrrolo[2,3-d]pyrimidin-4-yl)-3-methylpiperazine-1-carboxylate], the EC50 at TRPML1 was < 100 nM; at TRPML2, 100 to 500 nM; at TRPML3 it was < 100 nM.

With `C[C@H]1CN(C(=O)OC(C)(C)C)CCN1c1ncnc2c1c(N1CCCC1)cn2-c1ncc(C#N)s1` [Compound 485, tert-butyl (S)-4-(7-(5-cyanothiazol-2-yl)-5-(pyrrolidin-1-yl)-7H-pyrrolo[2,3-d]pyrimidin-4-yl)-3-methylpiperazine-1-carboxylate], the concentration for a half-maximal effect (EC50) is < 100 nM at TRPML1, 500 to 2000 nM on TRPML2 and 500 to 2000 nM at TRPML3.

(Values after patent US20250136606A1, “MODULATORS OF TRPML, THEIR COMPOSITIONS AND METHODS OF USE” (Caraway Therapeutics, Inc., priority 2021, published 2025).)
